Experimental data: patent publication US20040029891A1, “Use of PDE5 inhibitors in the treatment of polycystic ovary syndrome” (Pfizer Inc., priority 2002, published 2004)

Key:
cattle = test: Uterine horn histology (endometrial epithelial thickness) in cattle; assay type: in vivo; conditions: intra-vaginally twice daily, 30 days, relative to control animals (FIG. 4)
Procedure: Oestrous was synchronised using two intramuscular injections of PGF2a (Lutalyse™) administered 11 days apart.
The pyrazolopyrimidinone PDE V inhibitor was administered intra-vaginally twice daily from day −3 of oestrus until day 6 of the following oestrus (30 days in total). Blood samples were collected daily, plasma was prepared as soon as possible and stored at −20° C. and then analysed for progesterone.
At the completion of the study (ie day 6 of the second oestrous period) the cattle were euthanised and the reproductive tract collected. A cross section of the left and right horns of each uterus was collected and stored in 10% Formalin and ten analysed histologically.

ob/ob mice [1] = test: Plasma triglycerides in ob/ob mice, 5 day dosing; assay type: in vivo, mouse; conditions: summary in words
Procedure: (§1) The selective pyrazolopyrimidinone PDEV inhibitor compounds to be tested were solubilized in 10% DMSO/0.1% pluronics and dosed via oral gavage using mouse oral feeding needles (20 gauge, Popper & Sons, Inc., New Hyde Park, N.Y.). A volume of 4 ml/kg weight was administered for each dose. Compounds were tested at doses ranging from 1-50 mg/kg. Alternatively, the test selective pyrazopyrimidinone PDEV inhibitor compound was administered in the drinking water and found to produce similar reductions in plasma glucose and triglycerides to the reductions observed for the same compound when administered by oral gavage. […]
(§2) Mice were allowed to acclimate to the Pfizer animal facilities for 1 week prior to the start of the study. On day one, retro-orbital blood samples were obtained and plasma glucose was determined as described hereinafter. […] Body weight was measured on days 1 and 5 of the study, and food consumption was assessed over the 5 day period.
(§3) On the morning of the last day of the study mice were dosed with test pyrazolopyrimidinone PDEV compound or vehicle at approximately 8:00 am. […] Plasma samples were stored at −80° C. until analyzed.
(§4) Plasma glucose and triglycerides were measured using the Alcyon Clinical Chemistry Analyzer (Abbott Laboratories, Abbott Park, Ill.) using kits supplied by Abbott. […]

ob/ob mice [2] = test: Plasma glucose in ob/ob mice, 5 day dosing; assay type: in vivo, mouse; conditions: summary in words
Procedure: as §1, §2, §3, §4

| SMILES | endometrial epithelial thickness (cattle) | serum triglyceride levels (ob/ob mice [1]) | plasma glucose levels (ob/ob mice [2]) |
| --- | --- | --- | --- |
| CCCOc1ccc(S(=O)(=O)N2CCN(CC)CC2)cc1-c1nc2c(CC)n(Cc3ccccn3)nc2c(=O)[nH]1 [PDE5 A, 3-ethyl-5-[5-(4-ethylpiperazin-1-ylsulphonyl)-2-n-propoxyphenyl]-2-(pyridin-2-yl)methyl-2,6-dihydro-7H-pyrazolo[4,3-d]pyrimidin-7-one] | increases endometrial epithelial thickness |  |  |
| CCCc1nn(C)c2c(=O)[nH]c(-c3cc(S(=O)(=O)N4CCN(C)CC4)ccc3OCC)nc12 [PDE5 C, 5-[2-ethoxy-5-(4-methyl-1-piperazinylsulphonyl)phenyl]-1-methyl-3-n-propyl-1,6-dihydro-7H-pyrazolo[4,3-d]pyrimidin-7-one] |  | reduce | reduce |
